Laboratory results reported in patent US8853394B2, “Pharmacokinetically improved compounds” (Surface Logix, Inc., priority 2006, dated 2014).
Converted amounts (≈) assume the structure as drawn. Where two headings read alike, the source gives them in different places.

Experiments:
[1] = tested on: PDE-1; assay: PDE-1 inhibition; assay type: biochemical
[2] = target: PDE5 (Homo sapiens, UniProt O76074); assay: PDE-5 human inhibition; assay type: biochemical
[3] = target: T1, PDE-6 bovine (Bos taurus, UniProt P11541+P23439); assay: PDE-6 bovine inhibition; assay type: biochemical
T1 sequence (P11541 2-856 limits assumed): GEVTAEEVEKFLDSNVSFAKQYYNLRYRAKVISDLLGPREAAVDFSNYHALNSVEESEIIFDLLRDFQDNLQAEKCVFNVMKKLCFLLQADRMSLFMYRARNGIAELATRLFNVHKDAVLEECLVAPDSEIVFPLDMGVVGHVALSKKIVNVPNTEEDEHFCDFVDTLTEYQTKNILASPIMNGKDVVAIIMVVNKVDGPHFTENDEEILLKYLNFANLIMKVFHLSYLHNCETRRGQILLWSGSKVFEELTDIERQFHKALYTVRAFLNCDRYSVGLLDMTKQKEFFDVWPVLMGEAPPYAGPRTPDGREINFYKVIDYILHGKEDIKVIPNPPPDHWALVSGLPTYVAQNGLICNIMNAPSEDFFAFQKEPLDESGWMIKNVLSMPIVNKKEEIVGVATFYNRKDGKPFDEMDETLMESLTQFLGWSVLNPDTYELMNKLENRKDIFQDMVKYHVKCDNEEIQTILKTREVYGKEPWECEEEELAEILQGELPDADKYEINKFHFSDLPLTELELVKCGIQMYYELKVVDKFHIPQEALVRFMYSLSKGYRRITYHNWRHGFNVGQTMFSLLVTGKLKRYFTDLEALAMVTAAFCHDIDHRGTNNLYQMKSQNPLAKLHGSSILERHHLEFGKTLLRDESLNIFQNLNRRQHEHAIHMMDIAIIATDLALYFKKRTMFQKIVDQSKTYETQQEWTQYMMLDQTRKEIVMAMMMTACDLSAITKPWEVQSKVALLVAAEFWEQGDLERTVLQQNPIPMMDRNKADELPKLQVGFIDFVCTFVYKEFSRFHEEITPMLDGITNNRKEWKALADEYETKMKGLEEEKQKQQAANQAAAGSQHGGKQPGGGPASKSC
T1 sequence (P23439 2-850 limits assumed): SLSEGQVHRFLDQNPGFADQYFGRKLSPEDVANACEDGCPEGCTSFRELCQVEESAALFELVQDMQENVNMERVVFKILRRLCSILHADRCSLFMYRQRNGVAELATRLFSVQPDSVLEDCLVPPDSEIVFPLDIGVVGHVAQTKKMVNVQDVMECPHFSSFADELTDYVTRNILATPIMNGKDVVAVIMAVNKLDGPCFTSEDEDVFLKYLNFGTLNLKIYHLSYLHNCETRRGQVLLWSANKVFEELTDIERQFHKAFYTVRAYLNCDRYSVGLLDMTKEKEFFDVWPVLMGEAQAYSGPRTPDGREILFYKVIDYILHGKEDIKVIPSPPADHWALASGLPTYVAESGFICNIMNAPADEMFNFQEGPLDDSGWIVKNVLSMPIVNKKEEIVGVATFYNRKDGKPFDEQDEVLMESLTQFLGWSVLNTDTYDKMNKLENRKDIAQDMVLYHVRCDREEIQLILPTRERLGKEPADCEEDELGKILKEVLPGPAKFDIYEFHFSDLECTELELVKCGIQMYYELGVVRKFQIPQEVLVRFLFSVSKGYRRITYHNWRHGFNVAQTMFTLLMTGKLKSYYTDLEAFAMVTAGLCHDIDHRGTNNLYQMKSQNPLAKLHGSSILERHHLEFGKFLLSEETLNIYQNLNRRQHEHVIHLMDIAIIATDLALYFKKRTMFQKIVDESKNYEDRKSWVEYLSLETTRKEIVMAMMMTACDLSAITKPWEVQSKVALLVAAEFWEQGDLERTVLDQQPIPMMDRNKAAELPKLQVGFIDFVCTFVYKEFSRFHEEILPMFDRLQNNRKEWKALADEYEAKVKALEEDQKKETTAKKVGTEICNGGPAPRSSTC

[4] = T1/2 in rat liver microsomes; assay type: in vitro ADME
[5] = Solubility; assay type: physicochemical
[6] = T1/2 in human liver microsomes; assay type: in vitro ADME
[7] = PAMPA permeability; assay type: in vitro ADME; conditions: Hex, read-out: PAMPA Hex
[8] = Non-Spec Binding; assay type: in vitro ADME
[9] = tested on: PDE-4 human; assay: PDE-4 human inhibition; assay type: biochemical
[10] = Caco-2 permeability; assay type: in vitro ADME; conditions: human; for Papp A→B: AtoB; for Papp B→A: BtoA
Description: Several model systems are available, employing monolayers of various cell types, for evaluation of active transport of pharmaceutically active substances. For example, monolayers of Caco-2 intestinal epithelial cells can be used to evaluate active transport of substances between the intestine and the bloodstream. When plated on a surface which allows the flow of material from apical to basolateral and vice versa, such cells form a biological membrane which can be used to simulate physiological absorption and bioavailability. In another example, mouse brain capillary endothelial cell (MBEC) lines have been established to evaluate active transport in and out of the central nervous system. Another example of such cells is HT29 human colon carcinoma cells. Further, monolayers expressing particular transporter proteins can be established using transfected cells. For example, Sasaki et al (2002) J. Biol. Chem. 8:6497 used a double-transfected Madin-Darby canine kidney cell monolayer to study transport of organic anions.

[11] = tested on: PDE-3; assay: PDE-3 inhibition; assay type: biochemical
[12] = Protein Binding; assay type: in vitro ADME; conditions: human, human serum components
Procedure: In general, protein binding is assessed by measuring the capacity of molecules of the invention to bind to one or more human serum components or mimics thereof. In one embodiment, suitable functional residues may be identified by screening of surfaces comprising such residues for their ability to resist adsorption of serum components, including, but not limited to serum proteins, and preferably human serum proteins. Candidate residues can be screened directly by attaching them to a solid support and testing the support for protein resistance. Alternatively, candidate residues are incorporated into, or linked to molecules of pharmaceutical interest. Such compounds may be synthesized on a solid support, or bound to a solid support after synthesis. In a non-limiting example of a direct binding assay, immobilized candidate functional residues or molecules incorporating such residues are tested for their ability to bind serum components. The serum components can be labeled with a signaling moiety for detection, or a labeled secondary reagent that binds to such serum components can be used.
A direct binding analysis can also be preformed in liquid phase. For example, test compounds can be mixed with one or more serum components in liquid phase, and the unbound molecules determined.

[13] = Chronic Cytoxicity (mouse 3T3); assay type: cell-based; conditions: 3T3 cells
[14] = pH 2.7, aqueous buffer, read-out: Solubility (ug/mL) pH 2.7
[15] = pH 7.4, aqueous buffer, read-out: Solubility (ug/mL) pH 7.4

IC50 [1]	IC50 [2]	IC50 [3]	half-life [4]	solubility [5, 14]	solubility [5, 15]	half-life [6]	Papp [7]	Non-Spec Binding (%) [8]	IC50 [9]	Papp A→B [10]	Papp B→A [10]	IC50 [11]	fraction unbound [12]	Compound	GI50 [13]	LC50 (50% lethal concentration) [13]
95 nM	0.14 nM	4.4 nM	45.4 min	124 µg/mL (≈ 228 µM)	111 µg/mL (≈ 204 µM)	34 min	~1.06 ×10⁻⁶ cm/s							CCCc1nc(C)c2c(=O)[nH]c(-c3cc(S(=O)(=O)N4CCN(C(=O)CN(C)C)CC4)ccc3OCC)nn12 [Compound 1]		
2.55 nM	0.056 nM	0.685 nM	24 min			22.4 min		15.5%	686 nM	7.86 ×10⁻⁶ cm/s	44.8 ×10⁻⁶ cm/s	1200 nM	0.104	CCCc1nc(C)c2c(=O)[nH]c(-c3cc(S(=O)(=O)N4CCN(C(=O)C5CCCO5)CC4)ccc3OCC)nn12 (centres unmarked) [Compound 19]		
16 nM	0.037 nM	0.64 nM	33 min			44.1 min		22.15%	1300 nM	4.11 ×10⁻⁶ cm/s	46.3 ×10⁻⁶ cm/s	507 nM	0.0945	CCCc1nc(C)c2c(=O)[nH]c(-c3cc(S(=O)(=O)N4CCN(CC(=O)NC(C)C)CC4)ccc3OCC)nn12 [Compound 18]		
17 nM	0.04 nM	0.365 nM	59.9 min			> 60 min		9.72%	963 nM	2.65 ×10⁻⁶ cm/s	45.4 ×10⁻⁶ cm/s	941 nM	0.11	CCCc1nc(C)c2c(=O)[nH]c(-c3cc(S(=O)(=O)N4CCN(CC(=O)N(C)C)CC4)ccc3OCC)nn12 [Compound 16]		

More lines, now with the values behind:

Compound	IC50 [1]	IC50 [2]	IC50 [3]	half-life [4]	solubility [5, 14]	solubility [5, 15]	half-life [6]	Papp [7]	Non-Spec Binding (%) [8]	IC50 [9]	Papp A→B [10]	Papp B→A [10]	IC50 [11]	fraction unbound [12]	GI50 [13]	LC50 (50% lethal concentration) [13]
CCCc1nn(C)c2c(=O)[nH]c(-c3cc(S(=O)(=O)N4CCN(CCN5CCOCC5)CC4)ccc3OCC)nc12 [Compound 21]	76 nM	1.5 nM	12 nM	34 min	112 µg/mL (≈ 194 µM)	26 µg/mL (≈ 45.3 µM)	47 min		68.4%	3700 nM			9600 nM	0.071		
CCCc1nc(C)c2c(=O)[nH]c(-c3cc(S(=O)(=O)N(C)C(C)(C)C)ccc3OCC)nn12 [Compound 3]	11.9 nM	0.107 nM	3.74 nM		90.2 µg/mL (≈ 195 µM)	15 µg/mL (≈ 32.5 µM)		53.9 ×10⁻⁶ cm/s			50.8 ×10⁻⁶ cm/s	50.4 ×10⁻⁶ cm/s	323 nM		> 50000 nM	> 100000 nM
CCCc1nc(C)c2c(=O)[nH]c(-c3cc(S(=O)(=O)N(C)CC(OC)OC)ccc3OCC)nn12 [Compound 17]	2.6 nM	0.066 nM	0.86 nM	6.83 min			1.08 min		36.5%	1100 nM	40.5 ×10⁻⁶ cm/s	39.4 ×10⁻⁶ cm/s	391 nM	0.016		
CCCc1nc(C)c2c(=O)[nH]c(-c3cc(S(=O)(=O)NCCCN4CCCC4=O)ccc3OCC)nn12 [Compound 13]	3.5 nM	0.051 nM	0.645 nM	16.6 min			12.7 min		5.95%	373 nM	10.6 ×10⁻⁶ cm/s	36.7 ×10⁻⁶ cm/s	777 nM	0.0885		
CCCc1nc(C)c2c(=O)[nH]c(-c3cc(S(=O)(=O)N4CCN(CCN5CCOCC5)CC4)ccc3OCC)nn12 [Compound 15]	46.3 nM	0.16 nM	1.09 nM	34 min	115 µg/mL (≈ 200 µM)	110 µg/mL (≈ 192 µM)	30.8 min		8.78%	3690 nM	8.45 ×10⁻⁶ cm/s	40.6 ×10⁻⁶ cm/s	2230 nM	0.155		
